One assay concerns the target T1, Shp1 (Mus musculus, UniProt P29351).
T1 construct: gene Ptpn6; GST-tagged PTP domain
T1 sequence (P29351 244-515 limits assumed): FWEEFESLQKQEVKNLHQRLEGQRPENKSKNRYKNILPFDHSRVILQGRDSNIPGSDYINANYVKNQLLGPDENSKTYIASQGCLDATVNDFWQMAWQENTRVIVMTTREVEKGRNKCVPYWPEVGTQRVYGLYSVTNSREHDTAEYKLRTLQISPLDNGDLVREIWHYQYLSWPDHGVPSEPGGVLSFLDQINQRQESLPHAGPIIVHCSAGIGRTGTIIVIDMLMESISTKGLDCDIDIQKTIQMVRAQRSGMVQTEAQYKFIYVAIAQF
Put plainly: phosphatase inhibition assay with purified GST-PTP domain. It counts as biochemical.

Another assay has as its target T2, Shp2 (Mus musculus, UniProt P35235).
T2 construct: gene Ptpn11; GST-tagged PTP domain
T2 sequence (P35235 247-521 limits assumed): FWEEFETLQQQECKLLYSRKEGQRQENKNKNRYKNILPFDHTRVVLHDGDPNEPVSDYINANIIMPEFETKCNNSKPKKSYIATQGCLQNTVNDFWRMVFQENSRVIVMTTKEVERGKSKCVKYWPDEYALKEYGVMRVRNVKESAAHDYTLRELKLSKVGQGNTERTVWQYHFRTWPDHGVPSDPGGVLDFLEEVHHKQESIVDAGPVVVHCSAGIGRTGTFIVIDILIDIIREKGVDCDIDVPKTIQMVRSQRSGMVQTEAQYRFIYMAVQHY
Nature of the assay: pNPP phosphatase assay with purified GST-PTP domain, absorbance at […] nm; Ki also determined ([…]). It is filed as biochemical.

As for `O=C(O)c1cc(O)c(=O)c2c(O)c(O)ccc2c1` [DCA, 7-deshydroxypyrogallin-4-carboxylic acid], the IC50 against Shp1 was determined as 2.3 µM; against Shp2, 2.1 µM.

For orientation: IC50 means the concentration that gives 50% inhibition.

Source of the values: article PMC2655646, “A Conserved Mechanism for Control of Human and Mouse Embryonic Stem Cell Pluripotency and Differentiation by Shp2 Tyrosine Phosphatase” (PLoS ONE, 2009).
